Measurements reported in patent publication US20010046704A1, “Methods and compositions to activate genes in cells” (priority 2000, published 2001).

Assays:
[1] = tested on: mouse ES stem cells; assay: Chemical mutagenesis of cell suspensions, cytotoxicity of the mutagen; format: cell-based; settings: cell suspensions (eg, mouse ES stem cells) exposed to doses as high as 0.4 mg/mL for 2 to 3 hours
Text: In this regard, numerous chemical mutagens have been described and used in the past, as described for instance by Russell et al., Biology of Mammalian Germ Cell Mutagenesis, Cold Spring Harbor Laboratory Press, 1990:271-285; Rinchik E. M., Trends in Genetics, 1991;7(1):15-21; or Marker et al., Genetics, 1997;145(2):435-443. For mutagenesis, cells are preferably treated with increasing amounts of the chemical mutagen(s) either in whole animals or in cell suspensions, to assess the cytotoxicity of the chemical mutagen(s). Typical doses have been described in the literature as cited above. For example, cell suspensions (eg, mouse ES stem cells) are exposed to doses of N-ethyl-N-nitrosourea (ENU) as high as 0.4 mg/mL for 2 to 3 hours, which results in more than 98% of the cells dying. […] Other mutagens include for instance intercalating agents, alkylating agents, strand breaking agents, mismatch-inducing agents, etc.

[2] = tested on: DNA; settings: compared with other mutagenic agents; cited from earlier work

CCN(N=O)C(N)=O [ENU, N-ethyl-N-nitrosourea]
cells dying [1]: more than 98% | efficiency in generating mutations relative to other agents [2]: at least 10 times
